Starred links: 1 amine or outer side, 2 acyl side, 3 side chain; linkers in the order of their positions; H or OH if unused. Residues, ends and D or L forms follow the SMILES beside them. Groups on a side chain read outwards from the residue. No end group written: not given here. *: point of attachment. γGlu = O=C(O)[C@H](CCC(=O)[*:2])N[*:1]; Palmitoyl = CCCCCCCCCCCCCCCC(=O)*
How the values were obtained:
[1] = tested on: C57BL/6 mice; assay: Acute food intake in overnight fasted mice; assay type: in vivo
Description: (§1) Acute in vivo studies were conducted in groups (n = 6) of 4‐month‐old male C57BL/6 mice (Envigo, Huntington, UK). All mice were maintained on standard rodent chow (10% fat, 30% protein, and 60% carbohydrate; Trouw Nutrition, Northwich, UK), and drinking water provided ad libitum. Mice were housed individually and kept in a temperature‐controlled environment (22 ± 2°C), with a 12‐h light/dark cycle. Experiments were carried out in accordance with the UK Animal Scientific Procedures Act 1986 as well as being approved by Ulster University Animal Ethics Review Committee (AWERB) committee and protected by the UK Home Office Animal project license number PPL2902, approved on April 26, 2021. Acute effects of test peptides on food intake were tested in overnight (16 h) fasted mice. Briefly, fasted mice were administered an intraperitoneal (i.p.) injection of saline vehicle (0.9% (w/v) NaCl) alone or in combination with test peptides (each at 25, 75, or 200 nmol/kg bw) and cumulative food intake measured at regular intervals, to assess the pharmacodynamic profile of the test peptides. For food intake studies, mice were provided with preweighed rodent maintenance diet in their food hopper at t = 0 min, which was then re‐weighed at each timepoint with all due care taken to account for any wastage or crumbling of the food pellets. In this regard, the investigator was present at all times during the 180‐min test period to ensure accuracy and consistency in all measurements. Furthermore, effects of PP or related peptides (25 nmol/kg bw) on glucose homeostasis and insulin secretion were evaluated in overnight fasted mice following i.p. injection of glucose alone (18 mmol/kg bw) or in combination with PP peptides (each at 25 nmol/kg bw).

[2] = tested on: C57BL/6 mice; assay: Glucose tolerance in mice; assay type: in vivo; conditions: exendin‐4 0.25 nmol/kg or CCK‐8 25 nmol/kg with glucose 18 mmol/kg i.p., versus glucose control; n = 6
Description: as §1, with “bw). […] Blood glucose was measured immediately using a hand‐held Ascencia Contour blood glucose meter (Bayer Healthcare, Newbury, Berkshire, UK). […]” for “bw).”

[3] = tested on: C57BL/6 mice; assay: Glucose‐stimulated plasma insulin in mice; assay type: in vivo; conditions: n = 6; for glucose‐induced insulin secretion (plasma insulin): peptide 25 nmol/kg with glucose 18 mmol/kg i.p., versus glucose control
Description: as §1, with “bw). […] Blood glucose was measured immediately using a hand‐held Ascencia Contour blood glucose meter (Bayer Healthcare, Newbury, Berkshire, UK). For plasma insulin, blood was collected in chilled fluoride/heparin‐coated microcentrifuge tubes (Sarstedt, Numbrecht, Germany) and centrifuged using a Beckman microcentrifuge (Beckman Instruments, Galway, Ireland) for 10 min at 12,000 rpm. Plasma was separated and stored at −20°C, until determination of plasma insulin by radioimmunoassay.[23]” for “bw).”

[4] = tested on: BRIN‐BD11 beta‐cells; assay: Beta‐cell proliferation (Ki‐67 staining); assay type: cell-based; conditions: versus control cultures, n = 3
Description: (§2) To assess the effects of PP and related peptides (10^−8 and 10^−6 M) on beta‐cell proliferation and apoptosis, BRIN‐BD11 beta‐cells were seeded onto sterilized, clear‐glass coverslips (16 mm diameter) and placed in 12‐well plates (Falcon Ltd) at a density of 40,000 cells per well and cultured for 18 h. Media control (11.1 mM glucose), GLP‐1 (10^−8 and 10^−6 M), and a cytokine cocktail mix (IL‐1β [100 U/mL], IFNγ [20 U/mL], TNFα [200 U/mL], Sigma Aldrich, UK) were employed as controls, as appropriate. Cells were then rinsed with PBS and fixed using 4% paraformaldehyde. After antigen retrieval with sodium citrate buffer at 95°C for 20 min, blocking was performed using 2% bovine serum albumin (BSA) for 45 min. For proliferation studies, the slips were then incubated at 37°C with rabbit anti‐Ki‐67 primary antibody (Abcam, ab15580), and subsequently with Alexa Fluor® 488 secondary antibody. Coverslips were mounted onto polylysine‐coated microscope slides using a 50:50 glycerol:PBS solution and stored at 4°C until required for analysis. To assess the ability of PP peptides to protect against cytokine‐induced apoptosis, cells were seeded, washed, and fixed as above, with the exception that the media was supplemented with the cytokine mix. The slips were then incubated at 37°C with TUNEL reaction mix for 60 min (Roche Diagnostics, Germany), and mounted onto microscope slides. To assess receptor specificity, co‐incubation of PP peptides with the well characterized NPY4R antagonist, (S)‐VU0637120,[24] at 10^−5 M was employed for beta‐cell proliferation experiments, conducted as detailed above. All slides were viewed using a fluorescent microscope (Olympus System Microscope, model BX51; Southend‐on‐Sea, UK) and photographed by DP70 camera adapter system. Proliferation/TUNEL positive frequency was determined using the cell‐counter function on ImageJ Software and expressed as % of total cells analyzed.

[5] = tested on: BRIN‐BD11 beta‐cells; assay: Protection against cytokine‐induced beta‐cell apoptosis (TUNEL); assay type: cell-based; conditions: peptides 10^−8 and 10^−6 M, cytokine cocktail IL‐1β 100 U/mL, IFNγ 20 U/mL, TNFα 200 U/mL, n = 3
Description: as §2, with “The slips were then incubated at 37°C with TUNEL reaction mix for 60 min (Roche Diagnostics, Germany), and mounted onto microscope slides. To assess receptor specificity, co‐incubation of PP peptides with the well characterized NPY4R antagonist, (S)‐VU0637120,[24] at 10^−5 M was employed for beta‐cell proliferation experiments, conducted as detailed above. All slides were viewed using a fluorescent microscope (Olympus System Microscope, model BX51; Southend‐on‐Sea, UK) and photographed by DP70 camera adapter system.” left out

[6] = tested on: T1, DPP-4; assay: In vitro DPP‐4 degradation; assay type: in vitro ADME, human; conditions: purified human DPP-4 enzyme; peptide 50 μg with purified human DPP‐4 (5 μL, 0.01 U/L), 37°C, 8 h; stopped with 10% (v/v) trifluoroacetic acid; rp‐HPLC C‐18, UV 214 nm; peaks by MALDI‐MS; read-out: % intact peptide after 8 h DPP‐4 incubation
T1 construct: purchased Sigma-Aldrich
Description: PP peptides (50 μg) were incubated at 37°C for 0–8 h with 5 μL of purified human DPP‐4 enzyme (0.01 U/L, Sigma‐Aldrich, Gillingham, UK). Degradation reactions were terminated via the addition of 10 μL 10% (v/v) trifluoroacetic acid/water solution. Reaction mixes were separated by reverse phase rp‐HPLC using a Phenomenex C‐18 analytical column (250 × 4.6 mm^2) with UV absorbance detection at 214 nm (ThermoQuest SpectraSystem UV2000 detector). HPLC peaks of interest were collected and analyzed by MALDI‐TOF MS on a Perseptive Biosystems Voyager‐DE Biospectrometry (Hertfordshire, UK).

## CCK‐8: used for cholecystokinin (CCK) receptor activation in combination studies (DYMGWMDF; ends and bridges not checked; UniProt P06307 96-103, looked up)
[1]; CCK‐8 25 nmol/kg i.p., early observation points, versus saline, n = 6
  food intake (appetite suppression), CCK‐8 alone: impressive effects on appetite suppression (p < 0.001)
[2]
  glucose disposal, exendin‐4 or CCK‐8: benefits
[3]; exendin‐4 0.25 nmol/kg or CCK‐8 25 nmol/kg with glucose 18 mmol/kg i.p.
  insulinotropic action, exendin‐4 or CCK‐8: significant insulinotropic actions

## CCCCCCCCCCCCCCCC(=O)N[C@@H](CCC(=O)NCCCC[C@H](NC(=O)[C@H](C)NC(=O)[C@H](CC(N)=O)NC(=O)[C@H](CC(=O)O)NC(=O)CNC(=O)[C@@H]1CCCN1C(=O)[C@H](Cc1ccc(O)cc1)NC(=O)[C@@H](NC(=O)[C@@H]1CCCN1C(=O)[C@H](CCC(=O)O)NC(=O)[C@H](CC(C)C)NC(=O)[C@@H]1CCCN1C(=O)[C@H](C)N)C(C)C)C(=O)N1CCC[C@H]1C(=O)N[C@@H](CCC(=O)O)C(=O)N[C@@H](CCC(N)=O)C(=O)N[C@@H](CCSC)C(=O)N[C@@H](C)C(=O)N[C@@H](CCC(N)=O)C(=O)N[C@@H](Cc1ccc(O)cc1)C(=O)N[C@@H](C)C(=O)N[C@@H](C)C(=O)N[C@@H](CC(=O)O)C(=O)N[C@@H](CC(C)C)C(=O)N[C@@H](CCCNC(=N)N)C(=O)N[C@@H](CCCNC(=N)N)C(=O)N[C@@H](Cc1ccc(O)cc1)C(=O)N[C@H](C(=O)N[C@@H](CC(N)=O)C(=O)N[C@@H](CCSC)C(=O)N[C@@H](CC(C)C)C(=O)N[C@H](C(=O)N[C@@H](CCCNC(=N)N)C(=O)N1CCC[C@H]1C(=O)N[C@@H](CCCNC(=N)N)C(=O)N[C@@H](Cc1ccc(O)cc1)C(N)=O)[C@@H](C)O)[C@@H](C)CC)C(=O)O [[K^13Pal]PP] (H-APLEPVYPGDNAK([γGlu-Palmitoyl])PEQMAQYAADLRRYINMLTRPRY-NH2; N-terminus assumed)
[4]; peptide 10^−8 M
  BRIN‐BD11 cell proliferation: augmented
[1]; PP peptide 25 nmol/kg with exendin‐4 0.25 nmol/kg i.p., fasted mice, n = 6
  food intake in combination with exendin‐4: additive appetite suppressive actions
[1]; i.p., overnight fasted mice
  food intake in overnight fasted mice, summary in discussion: retained impressive effects to restrict food intake

## glucagon‐like peptide‐1 (HAEGTFTSDVSSYLEGQAAKEFIAWLVKGR; ends and bridges not checked; UniProt P01275 98-127, looked up) [GLP‐1, positive control in proliferation and apoptosis tests]
[4]; peptide 10^−6 M
  BRIN‐BD11 cell proliferation: significantly (p < 0.001) enhanced
[4]; peptide 10^−8 M
  BRIN‐BD11 cell proliferation: significantly (p < 0.001) enhanced
[5]
  protection against cytokine‐induced beta‐cell apoptosis: significantly (p = <0.01 to 0.001) protected against cell death

## (N‐Pal)APLEPVYPGDNATPEQMAQYAADLRRYINMLTRPR‐NH2 [[N‐Pal]PP, PP analog with C‐16 palmitate via γ‐glutamyl spacer at the N‐terminal amino group]
[1]; 200 nmol/kg i.p., overnight fasted mice, later observation points, versus saline, n = 6
  cumulative food intake (appetite suppression): mild inhibitory (p < 0.05) effect
[3]
  glucose‐induced insulin secretion (plasma insulin): slightly decreasing (p = <0.05 to 0.01)

## (N‐Pal)APPEPVYPGDNATPEQMAQYAADLRRYINMLTRPR‐NH2 [[N‐Pal,P^3]PP, PP analog with Pro^3 and N‐terminal C‐16 palmitate via γ‐glutamyl spacer]
[1]; all doses employed (25, 75, 200 nmol/kg i.p.), overnight fasted mice, n = 6
  cumulative food intake (appetite suppression): lacked bioactivity
[3]
  glucose‐induced insulin secretion (plasma insulin): slightly decreasing (p = <0.05 to 0.01)

## CC[C@H](C)[C@H](NC(=O)[C@H](Cc1ccc(O)cc1)NC(=O)[C@H](CCCNC(=N)N)NC(=O)[C@H](CCCNC(=N)N)NC(=O)[C@H](CC(C)C)NC(=O)[C@H](CC(=O)O)NC(=O)[C@H](C)NC(=O)[C@H](C)NC(=O)[C@H](Cc1ccc(O)cc1)NC(=O)[C@H](CCC(N)=O)NC(=O)[C@H](C)NC(=O)[C@H](CCSC)NC(=O)[C@H](CCC(N)=O)NC(=O)[C@H](CCC(=O)O)NC(=O)[C@@H]1CCCN1C(=O)[C@@H](NC(=O)[C@H](C)NC(=O)[C@H](CC(N)=O)NC(=O)[C@H](CC(=O)O)NC(=O)CNC(=O)[C@@H]1CCCN1C(=O)[C@H](Cc1ccc(O)cc1)NC(=O)[C@@H](NC(=O)[C@@H]1CCCN1C(=O)[C@H](CCC(=O)O)NC(=O)[C@@H]1CCCN1C(=O)[C@@H]1CCCN1C(=O)[C@H](C)N)C(C)C)[C@@H](C)O)C(=O)N[C@@H](CC(N)=O)C(=O)N[C@@H](CCSC)C(=O)N[C@@H](CC(C)C)C(=O)N[C@H](C(=O)N[C@@H](CCCNC(=N)N)C(=O)N1CCC[C@H]1C(=O)N[C@@H](CCCNC(=N)N)C(=O)N[C@@H](Cc1ccc(O)cc1)C(N)=O)[C@@H](C)O [[P^3]PP]
[6]
  remaining at 8 h: > 99%
